Measurements from PMC8282492 (Journal of Ginseng Research, 2020).

B1: 14-3-3 ζ protein, P63104 1-245 (natural protein)
chain: MDKNELVQKAKLAEQAERYDDMAACMKSVTEQGAELSNEERNLLSVAYKNVVGARRSSWRVVSSIEQKTEGAEKKQQMAREYREKIETELRDICNDVLSLLEKFLIPNASQAESKVFYLKMKGDYYRYLAEVAAGDDKKGIVDQSQQAYQEAFEISKKEMQPTHPIRLGLALNFSVFYYEILNSPEKACSLAKTAFDEAIAELDTLSEESYKDSTLIMQLLRDNLTLWTSDTQGDEAEAGEGGEN

Biological target: T1, 14-3-3 ζ protein (human), P63104
T1 chain: B1 chain
Assay: crystal structure
Conditions: remark: other sources report otherwise

Question: Which stoichiometry N does the source give for B1 here?
Answer: 2

biological target: T2, human 14-3-3 ζ (Homo sapiens, UniProt P63104); assay: BLI direct binding response of ginsenosides to immobilised 14-3-3 ζ; conditions: compound concentration 271μM; Fig. 3A and B
T2 sequence (P63104 1-245): B1 chain

Question: How did the “direct binding response to 14-3-3 ζ (BLI)” value (“direct binding response” below) turn out when `CC(C)=CCC[C@](C)(O[C@@H]1O[C@H](CO)[C@@H](O)[C@H](O)[C@H]1O)[C@H]1CC[C@]2(C)[C@@H]1[C@H](O)C[C@@H]1[C@@]3(C)CC[C@H](O)C(C)(C)[C@@H]3CC[C@]12C` [CK, ginsenoside compound K] was run?
Answer: significant affinity

Question: How did the “direct binding response” value turn out when `CC(C)=CCC[C@](C)(O[C@@H]1O[C@H](CO)[C@@H](O)[C@H](O)[C@H]1O)[C@H]1CC[C@]2(C)[C@@H]1[C@H](O)C[C@@H]1[C@@]3(C)CC[C@H](O)C(C)(C)[C@@H]3[C@@H](O)C[C@]12C` [F1] was run?
Answer: barely interacted

Question: Which “direct binding response” value does the source give for `CC(C)=CCC[C@](C)(O)[C@H]1CC[C@]2(C)[C@@H]1[C@H](O)C[C@@H]1[C@@]3(C)CC[C@H](O)C(C)(C)[C@@H]3[C@@H](O)C[C@]12C` [PPT, 20(S)-protopanaxatriol] here?
Answer: significant affinity

Question: `CC(C)=CCC[C@](C)(O[C@@H]1O[C@H](CO[C@@H]2O[C@H](CO)[C@@H](O)[C@H](O)[C@H]2O)[C@@H](O)[C@H](O)[C@H]1O)[C@H]1CC[C@]2(C)[C@@H]1[C@H](O)C[C@@H]1[C@@]3(C)CC[C@H](O[C@@H]4O[C@H](CO)[C@@H](O)[C@H](O)[C@H]4O[C@@H]4O[C@H](CO)[C@@H](O)[C@H](O)[C@H]4O)C(C)(C)[C@@H]3CC[C@]12C` [Rb1] was tested. Which “direct binding response” value did it give?
Answer: barely interacted

Question: With `CC(C)=CCC[C@](C)(O[C@@H]1O[C@H](CO)[C@@H](O)[C@H](O)[C@H]1O)[C@H]1CC[C@]2(C)[C@@H]1[C@H](O)C[C@@H]1[C@@]3(C)CC[C@H](O)C(C)(C)[C@@H]3[C@@H](O[C@@H]3O[C@H](CO)[C@@H](O)[C@H](O)[C@H]3O)C[C@]12C` [Rg1] as the molecule, how does the “direct binding response” value read?
Answer: significant affinity

Question: How did the “direct binding response” value turn out when `CC(C)=CCC[C@](C)(O)[C@H]1CC[C@]2(C)[C@@H]1[C@H](O)C[C@@H]1[C@@]3(C)CC[C@H](O)C(C)(C)[C@@H]3[C@@H](O[C@@H]3O[C@H](CO)[C@@H](O)[C@H](O)[C@H]3O)C[C@]12C` [Rh1] was run?
Answer: barely interacted

Question: For `CC(C)=CCC[C@](C)(O)[C@H]1CC[C@]2(C)[C@@H]1[C@H](O)C[C@@H]1[C@@]3(C)CC[C@H](O[C@@H]4O[C@H](CO)[C@@H](O)[C@H](O)[C@H]4O)C(C)(C)[C@@H]3CC[C@]12C` [Rh2], which “direct binding response” value is on record?
Answer: significant affinity
